ChEMBL document CHEMBL1221220, “Transport and signaling via the amino acid binding site of the yeast Gap1 amino acid transceptor” (Nat Chem Biol, 2009)
Residue numbers refer to the chain shown, from its start. The source made the active and inactive calls.

Legend:
[1] = system: T1, General amino-acid permease GAP1 (Saccharomyces cerevisiae), P19145 [A396C]; assay: Induction of yeast Gap1 A396C mutant-mediated […] activation at 2 mM in presence of 10 mM MTSEA treated before compound addition
T1 sequence (whole entry): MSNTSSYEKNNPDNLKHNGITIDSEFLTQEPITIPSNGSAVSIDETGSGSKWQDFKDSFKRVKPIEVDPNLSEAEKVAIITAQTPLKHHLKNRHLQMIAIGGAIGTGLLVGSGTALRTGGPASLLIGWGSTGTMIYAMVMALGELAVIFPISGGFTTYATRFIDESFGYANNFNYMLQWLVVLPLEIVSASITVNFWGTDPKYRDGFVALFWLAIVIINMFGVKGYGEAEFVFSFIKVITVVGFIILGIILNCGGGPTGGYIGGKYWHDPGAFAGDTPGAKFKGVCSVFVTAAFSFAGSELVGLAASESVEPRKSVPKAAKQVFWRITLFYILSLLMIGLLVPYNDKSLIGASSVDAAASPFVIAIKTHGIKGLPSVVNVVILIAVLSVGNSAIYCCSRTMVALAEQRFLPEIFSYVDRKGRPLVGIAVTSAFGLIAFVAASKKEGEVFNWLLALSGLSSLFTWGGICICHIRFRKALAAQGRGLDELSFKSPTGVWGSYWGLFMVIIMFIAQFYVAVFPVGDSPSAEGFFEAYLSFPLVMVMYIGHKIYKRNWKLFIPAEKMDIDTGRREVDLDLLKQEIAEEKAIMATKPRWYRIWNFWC

[2] = system: T2, General amino-acid permease GAP1 (Saccharomyces cerevisiae), P19145 [L383C]; assay: Induction of yeast Gap1 L383C mutant-mediated amino acid uptake at 2 mM in presence of 10 mM MTSEA treated before compound addition
T2 sequence (whole entry): T1 sequence (whole entry) with L383C, C396A

[3] = system: T3, General amino-acid permease GAP1 (Saccharomyces cerevisiae), P19145 [L387C]; assay: Induction of yeast Gap1 L387C mutant-mediated amino acid uptake at 2 mM in presence of 10 mM MTSEA treated before compound addition
T3 sequence (whole entry): T1 sequence (whole entry) with L387C, C396A

[4] = system: T4, General amino-acid permease GAP1 (Saccharomyces cerevisiae), P19145 [G390C]; assay: Induction of yeast Gap1 G390C mutant-mediated amino acid uptake at 2 mM in presence of 10 mM MTSEA treated before compound addition
T4 sequence (whole entry): T1 sequence (whole entry) with G390C, C396A

NC(=O)NCCC[C@H](N)C(=O)O
active: inhibition [1] | Activity [2] | Activity [3] | Activity [4]
